In patent EP3925956B1, “1H-INDAZOLE-3-CARBOXAMIDE DERIVATIVES AND RELATED COMPOUNDS AS FACTOR D INHIBITORS FOR TREATING DISEASES CHARACTERIZED BY ABERRANT COMPLEMENT SYSTEM ACTIVITY, SUCH AS E.G. IMMUNOLOGICAL DISORDERS” (BioCryst Pharmaceuticals, Inc., priority 2016, dated 2017):

Biological target: Factor D (Homo sapiens, UniProt P00746)
Assay: Factor D esterolytic assay

Sequence of Factor D (P00746 26-253): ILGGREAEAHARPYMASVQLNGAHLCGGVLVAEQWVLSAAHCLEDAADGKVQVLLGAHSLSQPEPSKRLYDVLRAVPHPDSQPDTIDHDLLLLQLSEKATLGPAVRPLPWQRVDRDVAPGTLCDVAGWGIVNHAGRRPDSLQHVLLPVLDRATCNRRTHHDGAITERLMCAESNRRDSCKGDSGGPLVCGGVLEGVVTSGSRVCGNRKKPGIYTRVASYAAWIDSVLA

Row | SMILES | IC50
1 | NC(=O)c1nn(CC(=O)N(CC(=O)NCc2cccc(Cl)c2F)[C@H]2C[C@H](N)C2)c2ccc(N)cc12 [351b, 5-amino-1-(2-(((trans)-3-aminocyclobutyl)(2-((3-chloro-2-fluorobenzyl)amino)-2-oxoethyl)amino)-2-oxoethyl)-1H-indazole-3-carboxamide] | < 1000 nM
2 | CN(C)CC[C@H](N)c1cccc(Cl)c1F [358f, (S)-1-(3-chloro-2-fluorophenyl)-N3,N3-dimethylpropane-1,3-diamine] | 1000 to 10000 nM
